Data taken from patent publication US12673052B2, “Combinations for the treatment of cancer” (Exelixis, Inc., priority 2020, dated 2026).

Legend:
[1] = test system: bacterial; assay: In vitro bacterial genotoxicity bioassay; type: cell-based
Method: (§1) The nonclinical toxicity of Compound 1 was characterized in dose range-finding 7-day and definitive 28-day repeat-dose studies in rats and dogs, and in in vitro bacterial and mammalian genotoxicity bioassays. Compound 1 was also evaluated in definitive neurobehavioral, respiratory and cardiovascular safety pharmacology studies.
Compound 1 was negative in in vitro bacterial and mammalian cell genotoxicity bioassays.

[2] = biological target: T1, AXL (Homo sapiens, UniProt P30530); assay: RTK autophosphorylation ELISA, A-172 cells stimulated with Gas6; type: cell-based; set-up: cell lines (PC-3, HUVEC, and A-172) stimulated with ligands to their respective receptors to induce autophosphorylation (MET, VEGFR2, and AXL); endogenous in cells; host or cells: A-172; conditions: ligand Gas6, read-out: Cellular IC50
T1 sequence (P30530 26-894): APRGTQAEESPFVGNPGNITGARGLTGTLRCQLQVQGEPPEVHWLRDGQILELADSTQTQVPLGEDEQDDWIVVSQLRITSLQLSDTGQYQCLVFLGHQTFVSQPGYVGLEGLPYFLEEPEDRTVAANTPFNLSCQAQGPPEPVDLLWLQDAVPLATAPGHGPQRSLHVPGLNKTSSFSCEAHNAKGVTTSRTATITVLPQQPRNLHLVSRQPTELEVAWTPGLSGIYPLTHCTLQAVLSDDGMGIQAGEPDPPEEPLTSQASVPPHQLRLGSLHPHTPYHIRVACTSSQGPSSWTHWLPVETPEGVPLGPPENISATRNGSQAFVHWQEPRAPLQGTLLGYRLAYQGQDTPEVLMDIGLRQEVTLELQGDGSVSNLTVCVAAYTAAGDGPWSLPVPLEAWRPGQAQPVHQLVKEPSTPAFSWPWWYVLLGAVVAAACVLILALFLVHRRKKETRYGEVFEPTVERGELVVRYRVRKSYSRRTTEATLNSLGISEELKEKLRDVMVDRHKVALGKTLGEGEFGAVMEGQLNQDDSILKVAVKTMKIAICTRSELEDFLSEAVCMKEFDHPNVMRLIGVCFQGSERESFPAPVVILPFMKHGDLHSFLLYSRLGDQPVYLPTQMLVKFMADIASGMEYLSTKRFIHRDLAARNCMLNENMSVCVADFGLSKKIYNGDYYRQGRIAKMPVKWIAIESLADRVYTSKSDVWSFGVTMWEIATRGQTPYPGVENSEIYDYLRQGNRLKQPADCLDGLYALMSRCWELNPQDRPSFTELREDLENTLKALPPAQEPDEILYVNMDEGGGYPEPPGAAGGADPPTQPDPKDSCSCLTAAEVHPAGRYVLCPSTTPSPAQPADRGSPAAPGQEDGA
Method: The activity of Compound 1 was evaluated in cell-based assays that assessed the mechanistic effects of the compound in tumor and normal cells. Consistent with the biochemical data, Compound 1 is a potent inhibitor of cellular RTKs as assessed by analysis of receptor autophosphorylation as measured by enzyme-linked immunosorbent assay. Assays were performed using cell lines (PC-3, HUVEC, and A-172) stimulated with ligands to their respective receptors to induce autophosphorylation (MET, VEGFR2, and AXL) or a cell line (293A) transfected with an expression vector encoding the receptor of interest (MER). Inhibition of endogenous phosphorylated MET by Compound 1 in Hs 746T gastric carcinoma cells was also investigated due to the presence of the skip-splice mutation of exon 14 in the MET gene. This MET exon 14 alteration leads to increased MET stability and oncogenic activation, including constitutive MET phosphorylation. Also this mutation is known to occur in 3% of lung adenocarcinoma patients and to be sensitive to MET-targeted therapies (Frampton et al 2015).

[3] = biological target: T1, AXL; assay: Kinase catalytic activity assay, radioactive assay platform; type: biochemical; conditions: 10 μM ATP
Method: (§2) Compound 1 inhibitory activity was evaluated in multiple kinase catalytic activity assays using a radioactive assay platform. […] All in vitro biochemical assays were performed at 10 μM ATP concentrations.

[4] = biological target: VEGFR2 (Homo sapiens, UniProt P35968); assay: as above; type: biochemical; conditions: 10 μM ATP
VEGFR2, sequence (P35968 20-1356): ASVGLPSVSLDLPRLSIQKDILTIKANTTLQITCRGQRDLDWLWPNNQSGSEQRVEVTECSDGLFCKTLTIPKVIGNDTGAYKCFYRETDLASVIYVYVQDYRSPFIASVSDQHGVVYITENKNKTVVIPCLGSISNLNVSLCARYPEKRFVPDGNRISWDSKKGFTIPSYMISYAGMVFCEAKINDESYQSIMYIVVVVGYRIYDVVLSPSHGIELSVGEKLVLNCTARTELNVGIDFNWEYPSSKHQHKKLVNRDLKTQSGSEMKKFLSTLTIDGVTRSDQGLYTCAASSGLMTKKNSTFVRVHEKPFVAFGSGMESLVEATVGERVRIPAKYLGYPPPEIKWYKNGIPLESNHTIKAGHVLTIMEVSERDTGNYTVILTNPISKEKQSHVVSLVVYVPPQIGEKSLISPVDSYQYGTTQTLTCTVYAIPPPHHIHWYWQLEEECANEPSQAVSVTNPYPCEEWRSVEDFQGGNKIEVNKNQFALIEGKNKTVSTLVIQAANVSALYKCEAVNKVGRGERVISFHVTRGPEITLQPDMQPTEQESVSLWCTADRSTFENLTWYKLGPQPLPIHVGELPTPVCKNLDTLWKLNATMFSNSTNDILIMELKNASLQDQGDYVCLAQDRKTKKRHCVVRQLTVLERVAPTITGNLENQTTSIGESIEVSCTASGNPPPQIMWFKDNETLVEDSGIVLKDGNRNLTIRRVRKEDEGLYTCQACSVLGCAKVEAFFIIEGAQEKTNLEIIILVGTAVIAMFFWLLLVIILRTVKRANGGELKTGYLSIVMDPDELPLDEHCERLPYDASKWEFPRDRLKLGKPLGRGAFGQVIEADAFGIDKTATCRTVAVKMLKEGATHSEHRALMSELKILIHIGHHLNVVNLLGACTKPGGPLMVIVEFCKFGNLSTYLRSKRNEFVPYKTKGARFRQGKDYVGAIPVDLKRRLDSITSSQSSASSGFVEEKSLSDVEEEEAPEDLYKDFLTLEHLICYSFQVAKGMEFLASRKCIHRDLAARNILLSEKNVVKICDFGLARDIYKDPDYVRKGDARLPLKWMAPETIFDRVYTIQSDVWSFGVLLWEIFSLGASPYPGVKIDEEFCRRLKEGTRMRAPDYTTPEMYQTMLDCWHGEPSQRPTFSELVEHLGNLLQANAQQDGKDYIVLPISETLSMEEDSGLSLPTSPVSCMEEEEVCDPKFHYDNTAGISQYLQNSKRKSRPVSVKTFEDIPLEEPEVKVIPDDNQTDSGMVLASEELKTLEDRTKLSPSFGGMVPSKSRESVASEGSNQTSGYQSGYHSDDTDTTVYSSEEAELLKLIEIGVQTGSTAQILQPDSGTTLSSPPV
Method: as §2

[5] = biological target: T2, MET (Homo sapiens, UniProt P08581); assay: as above; type: biochemical; conditions: 10 μM ATP
T2 sequence (P08581 25-1390): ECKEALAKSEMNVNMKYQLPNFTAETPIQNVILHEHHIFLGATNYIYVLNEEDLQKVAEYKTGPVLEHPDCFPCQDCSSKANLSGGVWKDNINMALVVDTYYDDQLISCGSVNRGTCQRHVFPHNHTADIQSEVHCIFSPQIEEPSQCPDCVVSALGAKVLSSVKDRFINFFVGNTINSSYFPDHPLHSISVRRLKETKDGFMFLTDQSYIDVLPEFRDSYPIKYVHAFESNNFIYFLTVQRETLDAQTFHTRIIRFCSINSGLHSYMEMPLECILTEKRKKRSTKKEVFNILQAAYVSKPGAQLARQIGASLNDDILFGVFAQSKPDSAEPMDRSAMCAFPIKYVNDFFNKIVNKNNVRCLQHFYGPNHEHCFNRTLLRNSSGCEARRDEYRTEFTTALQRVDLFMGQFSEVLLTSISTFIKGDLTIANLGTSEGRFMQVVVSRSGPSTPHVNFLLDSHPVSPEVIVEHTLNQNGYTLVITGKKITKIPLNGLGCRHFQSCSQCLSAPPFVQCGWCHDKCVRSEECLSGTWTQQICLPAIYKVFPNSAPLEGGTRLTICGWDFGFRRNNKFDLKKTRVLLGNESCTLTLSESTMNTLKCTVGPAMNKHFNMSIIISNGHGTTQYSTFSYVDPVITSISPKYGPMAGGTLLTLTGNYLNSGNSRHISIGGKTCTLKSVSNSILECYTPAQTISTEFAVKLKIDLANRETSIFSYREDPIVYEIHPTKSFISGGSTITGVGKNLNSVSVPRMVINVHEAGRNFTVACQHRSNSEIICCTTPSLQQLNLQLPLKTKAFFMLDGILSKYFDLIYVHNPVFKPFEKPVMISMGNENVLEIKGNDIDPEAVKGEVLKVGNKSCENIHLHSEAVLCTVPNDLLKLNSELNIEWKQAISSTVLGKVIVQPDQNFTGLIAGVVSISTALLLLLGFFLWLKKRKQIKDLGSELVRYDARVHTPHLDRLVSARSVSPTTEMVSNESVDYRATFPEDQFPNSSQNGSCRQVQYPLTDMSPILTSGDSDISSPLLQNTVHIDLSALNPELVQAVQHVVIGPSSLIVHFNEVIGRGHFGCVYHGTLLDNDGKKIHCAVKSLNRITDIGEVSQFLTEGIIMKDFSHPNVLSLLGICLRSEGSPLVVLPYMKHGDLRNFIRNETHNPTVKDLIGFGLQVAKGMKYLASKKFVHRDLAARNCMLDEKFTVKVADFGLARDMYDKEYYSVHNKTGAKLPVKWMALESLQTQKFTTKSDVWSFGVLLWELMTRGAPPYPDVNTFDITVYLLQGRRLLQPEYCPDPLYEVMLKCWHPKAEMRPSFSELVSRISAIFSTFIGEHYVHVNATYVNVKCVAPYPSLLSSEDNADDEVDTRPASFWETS
Method: as §2

[6] = biological target: T2, MET; assay: In vivo target modulation: MET phosphorylation by Western blot in NCI-H441 xenografts; set-up: endogenous in cells; host or cells: NCI-H441 human tumour xenografts in athymic nude mice; species or system athymic nude mice; conditions: for Compound 1 Plasma Exposure: qd × 14, 4 hours after last dose on Day 14
Method: Three human tumor cell lines, NCI-H441, MDA-MB-231, and SNU-5, were selected for use in tumor xenograft studies using athymic nude, NSG and CB.17 SCID mice, respectively. Pharmacodynamic modulation of MET phosphorylation was also measured in the NCI-H441 and SNU-5 xenografts. Tumor-bearing mice were orally dosed once-daily for 14 days (qd×14), and the tumors were resected and processed for MET phosphorylation analysis by Western blot. […]

[7] = biological target: CYP2D6 (Homo sapiens, UniProt P10635); assay: CYP/UGT substrate specificity (recombinant Supersomes, chemical inhibitors in human liver microsomes); type: in vitro ADME; set-up: purchased; host or cells: recombinant Supersomes; human liver microsomes
CYP2D6, sequence (P10635 whole entry): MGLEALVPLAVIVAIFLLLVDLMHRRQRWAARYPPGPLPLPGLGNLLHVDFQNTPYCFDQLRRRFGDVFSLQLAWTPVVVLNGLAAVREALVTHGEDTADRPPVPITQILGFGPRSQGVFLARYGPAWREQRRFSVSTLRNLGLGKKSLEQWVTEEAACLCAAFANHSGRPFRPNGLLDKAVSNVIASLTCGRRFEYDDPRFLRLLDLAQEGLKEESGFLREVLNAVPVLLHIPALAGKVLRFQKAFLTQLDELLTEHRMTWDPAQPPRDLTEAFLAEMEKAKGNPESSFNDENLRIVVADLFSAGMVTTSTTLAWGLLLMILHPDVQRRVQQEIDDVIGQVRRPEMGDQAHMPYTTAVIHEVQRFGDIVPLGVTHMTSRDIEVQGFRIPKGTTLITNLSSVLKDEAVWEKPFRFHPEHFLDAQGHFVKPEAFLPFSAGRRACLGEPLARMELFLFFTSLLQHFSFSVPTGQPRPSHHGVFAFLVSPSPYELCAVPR
Method: Plasma PK of Compound 1 was characterized in rats and beagle dogs. Toxicokinetic (TK) evaluations of oral Compound 1 were evaluated in repeat-dose studies in rats and dogs. Plasma protein binding was determined in mouse, rat, dog, monkey, and human plasma in vitro. Biotransformation and metabolite profiling of Compound 1 were investigated in vitro using mouse, rat, dog, monkey, and human liver microsomal fractions and hepatocytes and in vivo in rats and dogs. P-glycoprotein (P-gp) and breast cancer resistance protein (BCRP) transporter interaction studies, in vitro experiments evaluating cytochrome P450 (CYP) induction and inhibition by Compound 1, and CYP and glucuronosyltransferase (UGT) substrate specificity studies of Compound 1 were also performed.

[8] = GLP safety pharmacology: neurobehavioral and respiratory; type: in vivo, rats; conditions: single oral doses as high as 60 mg/kg; within 24 hours postdose
Method: as §1

[9] = Permeability in Caco-2 cells; type: in vitro ADME; conditions: human, highly permeable, read-out: apparent permeability coefficient (Papp)
[10] = Hepatocyte stability assay; type: in vitro ADME, monkey; conditions: hepatocytes
Method: In the liver microsomal stability assay, CLint was 0.601 mL/min/g liver in mouse, 0.563 mL/min/g liver in rat, 0.315 mL/min/g liver in dog, 0.734 mL/min/g liver in monkey, and 0.639 mL/min/g liver in human. In the hepatocyte stability assay, Compound 1 CLint was 0.373 mL/min/g liver in mouse, 0.285 mL/min/g liver in rat, 1.08 mL/min/g liver in dog, 0.533 mL/min/g liver in monkey, and 0.317 mL/min/g liver in human.

[11] = test system: CYP3A4; assay: Cytochrome P450 induction (mRNA levels) in fresh primary human hepatocytes; type: in vitro ADME
[12] = NCI-H441, mouse, po, read-out: p-MET Inhibition %

## CNC(=O)c1cc2c(Oc3ccc(NC(=O)C4(C(=O)Nc5ccc(F)cc5)CC4)cc3)ccnc2cc1OC [Compound 1, 1-N′-(4-Fluorophenvl)-1-N-[4-[7-methoxy-6-(methylcarbamovl)quinolin-4-yl]oxyphenyl]cyclopropane-1,1-dicarboxamide]
[1]
  genotoxicity: negative
[2]
  IC50: 3.4 nM
[3]
  IC50: 5.8 nM
[4]
  IC50: 15 nM
[5]
  IC50: 3 nM
[6]; 3 mg/kg
  Compound 1 Plasma Exposure: 2.44 µM
[6]; 10 mg/kg
  Compound 1 Plasma Exposure: 9.71 µM
[6]; [12]
  inhibition at 3 mg/kg: 60%
  inhibition at 10 mg/kg: 82%
[7]
  role in the metabolism of Compound 1: only a minor role
[8]
  neurobehavioral and respiratory system effects: no adverse neurobehavioral effects or toxicologically significant respiratory system effects
[9]
  Papp: 38.3 nm/s
[10]
  CLint: 0.533 mL/min/g liver
[11]; human, fresh primary human hepatocytes, mRNA induction, read-out: half-maximal effective concentration (EC50)
  EC50: 2980 nM
[11]; mRNA, 0.1-100 μM
  maximal induction effect (Emax): 24 fold
